Data reported in the supplement of paper PMC10307832.

What was measured:
Assay in all cases: relative viability (nuclei count vs DMSO), 5 days (fraction); higher = more cells survive
[1] = compound: C1CC1C(=O)NC2=NNC3=C2C=CC(=C3)C4=CC(=CC=C4)C(=O)NC5CC5 [XMD13-2] + Cc1nc(NC(=O)N2CCC[C@H]2C(N)=O)sc1-c1ccnc(C(C)(C)C(F)(F)F)c1 [Alpelisib] (partner 2 µM)
Summary of the method: (§1)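 Values are medians from duplicate plates. Each reflects relative viability, defined as the nuclei count of treated wells over that of vehicle wells. Lung cancer cell lines in 1536-well plates were pin-tool dosed one day after seeding with one drug alone or with a fixed anchor-drug dose plus five library-drug doses (not always all listed) in √10 steps, then fixed, stained and imaged at 4× after 5 days.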

[2] = compound: Cc1nc(Nc2ncc(C(=O)Nc3c(C)cccc3Cl)s2)cc(N2CCN(CCO)CC2)n1 [Dasatinib] + C[C@@H](Oc1cc(-c2cnn(C3CCNCC3)c2)cnc1N)c1c(Cl)ccc(F)c1Cl [Crizotinib] (partner 1 µM)
Summary of the method: as §1

[3] = compound: Cc1ccc(C(=O)Nc2cccc(C(F)(F)F)c2)cc1Nc1cncc(C(N)=O)c1 [ALW-II-49-7] + CS(=O)(=O)CCNCc1ccc(-c2ccc3ncnc(Nc4ccc(OCc5cccc(F)c5)c(Cl)c4)c3c2)o1 [Lapatinib] (partner 2 µM)
Summary of the method: as §1

[4] = compound: C1CC1C(=O)NC2=NNC3=C2C=CC(=C3)C4=CC(=CC=C4)C(=O)NC5CC5 [XMD13-2] + N=C(N)NC(=N)NCCc1ccccc1 [Phenformin] (partner 250 µM)
Summary of the method: as §1

| Cell Line | relative viability ([1]; first compound 0.05 µM) | relative viability ([1]; first compound 0.1581 µM) | relative viability ([1]; first compound 0.5 µM) | relative viability ([1]; first compound 1.581 µM) | relative viability ([1]; first compound 5 µM) | relative viability ([2]; first compound 0.005 µM) | relative viability ([2]; first compound 0.01581 µM) | relative viability ([2]; first compound 0.05 µM) | relative viability ([2]; first compound 0.1581 µM) | relative viability ([2]; first compound 0.5 µM) | relative viability ([3]; first compound 0.08 µM) | relative viability ([3]; first compound 0.253 µM) | relative viability ([3]; first compound 0.8 µM) | relative viability ([3]; first compound 2.53 µM) | relative viability ([3]; first compound 8 µM) | relative viability ([4]; first compound 0.05 µM) | relative viability ([4]; first compound 0.1581 µM) | relative viability ([4]; first compound 0.5 µM) | relative viability ([4]; first compound 1.581 µM) | relative viability ([4]; first compound 5 µM) |
| --- | --- | --- | --- | --- | --- | --- | --- | --- | --- | --- | --- | --- | --- | --- | --- | --- | --- | --- | --- | --- |
| NCI-H727 | 0.549 | 0.423 | 0.527 | 0.51 | 0.55 | 0.707 | 0.548 | 0.491 | 0.241 | 0.223 | 0.984 | 1.08 | 0.872 | 0.965 | 0.871 | 0.619 | 0.518 | 0.556 | 0.584 | 0.525 |
| NCI-H358 | 1.06 | 0.774 | 0.843 | 0.822 | 0.529 | 0.507 | 0.437 | 0.349 | 0.282 | 0.194 | 0.518 | 0.387 | 0.423 | 0.538 | 0.5 | 0.358 | 0.323 | 0.336 | 0.351 | 0.304 |
| NCI-H1437 | 0.935 | 1.06 | 0.955 | 0.796 | 1.05 | 0.868 | 0.894 | 1.1 | 0.79 | 0.251 | 0.786 | 0.731 |  | 0.786 | 0.749 | 0.297 | 0.305 | 0.299 | 0.311 | 0.341 |
| NCI-H441 | 0.675 | 1.15 | 0.649 | 0.801 | 0.547 | 0.62 | 0.626 | 0.617 | 0.309 | 0.162 |  |  |  |  |  | 1.06 | 0.801 | 0.883 | 0.884 | 0.871 |
| EMC-BAC-2 | 0.844 | 0.748 | 0.752 | 0.703 | 0.57 | 0.754 | 0.516 | 0.425 | 0.247 | 0.221 | 0.829 | 0.812 | 0.888 | 0.937 | 0.814 | 0.534 | 0.52 | 0.586 | 0.511 | 0.561 |
| NCI-H647 | 1.31 | 1.22 | 1.14 | 1.05 | 1.22 | 0.734 | 0.526 | 0.285 | 0.149 | 0.133 | 0.779 | 0.772 | 1.18 | 0.806 | 0.855 | 0.697 | 0.605 | 0.678 | 0.659 | 0.435 |
| CAL-12T | 1.31 | 1.18 | 1.24 | 1.11 | 1.4 | 0.86 | 0.627 | 0.457 | 0.128 | 0.0903 | 0.641 |  |  | 0.568 | 0.697 | 0.575 | 0.538 | 0.61 | 0.538 | 0.665 |
| NCI-H1792 | 0.845 | 0.691 | 0.745 | 0.845 | 0.821 | 0.938 | 0.916 | 0.874 | 0.753 | 0.51 | 0.673 | 0.881 | 0.943 | 0.98 | 0.774 | 0.29 | 0.306 | 0.259 | 0.324 | 0.352 |
| H3255 | 0.858 | 0.597 | 0.658 | 0.729 | 0.624 | 0.901 | 0.757 | 0.617 | 0.557 | 0.27 | 0.27 | 0.363 | 0.266 | 0.225 | 0.212 | 0.21 | 0.378 | 0.409 | 0.364 | 0.358 |
| HCC-78 | 0.392 | 0.338 | 0.327 | 0.304 | 0.352 | 0.314 | 0.289 | 0.25 | 0.158 | 0.145 | 0.779 | 0.957 | 0.993 | 0.878 | 0.623 | 0.831 | 0.755 | 0.661 | 0.671 | 0.684 |
| EBC-1 | 0.999 | 0.801 | 0.907 | 0.738 | 0.483 | 0.203 | 0.187 | 0.205 | 0.183 | 0.172 | 0.197 | 0.186 | 0.15 | 0.231 | 0.162 |  |  |  |  |  |
| NCI-H2405 | 0.935 | 0.875 | 0.807 | 0.81 | 0.863 | 0.698 | 0.568 | 0.493 | 0.258 | 0.194 | 1.01 | 1.24 | 0.972 | 0.938 | 0.89 | 0.436 | 0.417 | 0.411 | 0.397 | 0.438 |
| A549 | 1.05 | 0.709 | 0.812 | 0.714 | 0.952 | 0.563 | 0.642 | 0.415 | 0.264 | 0.131 | 0.958 | 1.03 | 1.01 | 1.05 | 0.978 | 0.547 | 0.152 | 0.153 | 0.12 | 0.232 |
| NCI-H3122 | 0.784 | 0.678 | 0.782 | 0.945 | 0.819 | 0.261 | 0.332 | 0.347 | 0.253 | 0.223 | 1.11 | 0.92 | 1.05 | 1.11 | 1.05 | 0.612 | 0.37 | 0.4 | 0.374 | 0.353 |
| NCI-H1563 | 1.02 | 1 | 0.941 | 0.894 | 0.985 | 0.803 | 0.673 | 0.679 | 0.592 | 0.577 | 1.07 | 0.92 | 1.16 | 0.837 | 0.897 | 0.683 | 0.697 | 0.64 | 0.669 | 0.679 |
| HCC-44 | 0.995 | 0.843 | 0.934 | 0.82 | 0.745 | 0.86 | 0.904 | 0.945 | 0.36 | 0.213 | 0.967 | 1.04 | 0.995 | 0.973 | 0.923 | 0.217 | 0.161 | 0.213 | 0.269 | 0.183 |
| PC-3 [JPC-3] | 1.05 | 0.983 | 1.06 | 1.02 | 0.936 | 0.996 | 0.986 | 1.11 | 0.955 | 0.63 | 0.387 | 0.461 | 0.485 | 0.471 | 0.419 | 0.5 | 0.49 | 0.48 | 0.523 | 0.54 |
